In publication PMC10263210, “Design, Synthesis and Biological Evaluation of Novel MDH Inhibitors Targeting Tumor Microenvironment” (Pharmaceuticals, 2023) one finds IC50 and melting point data, which are given here for 20 molecules.

One may read the IC50 as the concentration that inhibits the measured activity by half. For orientation: melting point means the temperature of the solid-liquid transition.

Each structure is given as a SMILES string.

For series [1], the target named is T1, human recombinant MDH1 (Homo sapiens, UniProt P40925).
T1 construct: purchased BioVision
T1 sequence (P40925 1-334): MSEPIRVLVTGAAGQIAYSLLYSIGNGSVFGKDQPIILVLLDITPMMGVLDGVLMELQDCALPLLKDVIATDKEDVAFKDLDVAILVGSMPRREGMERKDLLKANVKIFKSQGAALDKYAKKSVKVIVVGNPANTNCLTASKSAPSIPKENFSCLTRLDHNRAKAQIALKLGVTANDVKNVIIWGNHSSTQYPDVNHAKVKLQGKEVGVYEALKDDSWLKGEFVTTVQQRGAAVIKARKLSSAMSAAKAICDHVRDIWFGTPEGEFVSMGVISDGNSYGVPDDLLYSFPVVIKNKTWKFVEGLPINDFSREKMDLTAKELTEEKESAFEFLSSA
The experiment in a line: MDH1 enzyme activity assay (oxaloacetate-dependent NADH oxidation). Conditions: means of three experiments. In kind it is biochemical. An excerpt: (§1) To develop the dual inhibitors of MDH1 and MDH2, we screened the newly synthesized LW1497 derivatives using MDH and MDH2 enzyme assays. LW1497 was used as the positive control for the MDH1/2 dual inhibitor. We evaluated the ability of the synthesized compounds to inhibit human recombinant MDH1 and MDH2 enzymatic activity using an oxaloacetate-dependent NADH oxidation assay (Table 1, Table 2, Table 3, Table 4, Table 5 and Table 6). Our SAR optimization strategy focused on four different parts of LW1497: (A) the introduction of various groups at different positions on the amide phenyl ring; (B) the replacement of the 3-(4-(2,4,4-trimethylpentan-2-yl) alkyl chain; (C) the alteration of the amide portion; and (D) the modification of the oxypropanamide linker portion (Figure 1).
(§2) The activities of MDH1 and MDH2 were confirmed using an oxaloacetate-dependent NADH oxidation assay. Experiments were conducted using 100 mM of potassium phosphate buffer (pH 7.4) and human recombinant MDH1 (BioVision) and MDH2 (BioVision), and the results were obtained by measuring the absorbance at 340 nm. Enzyme activity was measured using a plate reader at a wavelength of 340 nm.

Series [2] concerns A549 lung cancer cells. The experiment in a line: Cell growth inhibition assay (SRB), A549. Conditions: Homo sapiens, means of three experiments, read-out: Cell Viability IC50 A549. In kind it is cell-based. On the procedure:
(§3) At the same time, we investigated the effect of the compounds on the growth inhibition of A549 and H460 lung cancer cells bearing KRAS and LKB1 mutations. […] Compound 50 containing a piperidine linker was selected for further analysis.
(§4) Human lung carcinoma A549 cells were cultured in Dulbecco’s modified Eagle’s medium and H460 cells were cultured in RPMI 1640 medium containing 10% fetal bovine serum and 1% penicillin/streptomycin at 37 °C with a 5% Co2 hypoxia experimental condition. The cells were grown in the hypoxia chamber (1% O2, 94% N2, and 5% Co2 in a multigas incubator)
(§5) Cell growth inhibition was assessed using sulforhodamine B (SRB) as described in [34]. The cells were fixed with 10% formalin (Sigma-Aldrich) and stained with 0.4% SRB. Protein-bound dye was dissolved in 10 mM of Tris, and its optical density was measured at 540 nm.

The subject of series [3] is H460 lung cancer cells. The experiment in a line: Cell growth inhibition assay (SRB), H460. In kind it is cell-based. As to conditions: Homo sapiens, NCI-H460, means of three experiments, read-out: Cell Viability IC50 H460. How it is done:
as §3, §4, §5

In series [4] the target is T2, human recombinant MDH2 (Homo sapiens, UniProt P40926).
T2 construct: purchased BioVision
T2 sequence (P40926 25-338): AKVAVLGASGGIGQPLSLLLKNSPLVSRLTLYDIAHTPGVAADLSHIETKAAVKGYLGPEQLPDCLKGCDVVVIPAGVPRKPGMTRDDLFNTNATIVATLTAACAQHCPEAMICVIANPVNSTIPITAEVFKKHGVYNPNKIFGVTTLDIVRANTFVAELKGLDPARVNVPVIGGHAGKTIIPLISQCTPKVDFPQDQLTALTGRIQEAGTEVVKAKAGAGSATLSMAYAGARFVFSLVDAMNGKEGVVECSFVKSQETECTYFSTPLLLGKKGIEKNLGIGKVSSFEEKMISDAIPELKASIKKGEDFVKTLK
In words: MDH2 enzyme activity assay (oxaloacetate-dependent NADH oxidation). In kind it is biochemical. As to conditions: means of three experiments.
Excerpt: as §1, §2

The molecule `COc1cccc(NC(=O)CCOc2ccc(C(C)(C)CC(C)(C)C)cc2)c1` [Compound 5a, N-(3-Methoxyphenyl)-3-(4-(2,4,4-trimethylpentan-2-yl)phenoxy)propanamide] returned a melting point of 97 to 99 °C. Also, the IC50 in series [1] was found to be 6.18 ± 0.74 µM. In addition, in series [2], the IC50 worked out at 11.1 ± 0.77 µM. For the same molecule, the IC50 in series [3] is 8.83 ± 0.34 µM. In series [4], the IC50 was 1.5 ± 0.01 µM.
For `CC(C)(C)CC(C)(C)c1ccc(OCCC(=O)Nc2cccc(C#N)c2)cc1` [Compound 5b, N-(3-Cyanophenyl)-3-(4-(2,4,4-trimethylpentan-2-yl)phenoxy)propanamide], the melting point lay in the range of 112 to 114 °C. The IC50 in series [1] stood at 6.96 ± 0.12 µM. Moreover, in series [2], the IC50 was 5.25 ± 0.21 µM. Moreover, the IC50 in series [3] came out at 5.84 ± 0.74 µM. In series [4], the IC50 came out at 2 ± 0.05 µM.
The corresponding values for `CC(C)(C)CC(C)(C)c1ccc(OCCC(=O)Nc2cccc(C(F)(F)F)c2)cc1` [Compound 5c, N-(3-(Trifluoromethyl)phenyl)-3-(4-(2,4,4-trimethylpentan-2-yl)phenoxy)propanamide] are 88 to 90 °C, 8.35 ± 2.86 µM, 6.47 ± 0.06 µM, 5.68 ± 0.23 µM and 1.04 µM.
As for `CC(C)(C)CC(C)(C)c1ccc(OCCC(=O)Nc2cccc(OC(F)(F)F)c2)cc1` [Compound 5d, N-(3-(Trifluoromethoxy)phenyl)-3-(4-(2,4,4-trimethylpentan-2-yl)phenoxy)propanamide], the IC50 in series [1] is 0.94 ± 0.05 µM; in series [2], 6.42 ± 0.06 µM; in series [3], 6.81 ± 0.04 µM; in series [4] it was 1.24 ± 0.13 µM.
Turning to `CC(C)(C)CC(C)(C)c1ccc(OCCC(=O)Nc2ccccc2OC(F)(F)F)cc1` [Compound 5e, N-(2-(Trifluoromethoxy)phenyl)-3-(4-(2,4,4-trimethylpentan-2-yl)phenoxy)propanamide], the IC50 was 3.14 ± 0.14 µM in series [1], above 10 µM in series [2], above 10 µM in series [3] and 3.09 ± 0.2 µM in series [4].
For the molecule `CC(C)(C)CC(C)(C)c1ccc(OCCC(=O)Nc2ccc(OC(F)(F)F)cc2)cc1` [Compound 5f, N-(4-(Trifluoromethoxy)phenyl)-3-(4-(2,4,4-trimethylpentan-2-yl)phenoxy)propanamide], the IC50 in series [1] was found to be 3.45 ± 0.07 µM; in series [2], 5.97 ± 0.71 µM; in series [3], 3.77 ± 0.02 µM; in series [4] it was 2.12 ± 0.21 µM.
For `CC(C)(C)CCc1ccc(OCCC(=O)Nc2cccc(OC(F)(F)F)c2)cc1` [Compound 14], in that order: 3.05 ± 0.29 µM, 14.44 ± 0.1 µM, 12.8 ± 1.36 µM and 1.53 ± 0.08 µM.
For `CC(C)(C)CNc1ccc(OCCC(=O)Nc2cccc(OC(F)(F)F)c2)cc1` [Compound 21, 3-(4-(Neopentylamino)phenoxy)-N-(3-(trifluoromethoxy)phenyl)propanamide], in that order: above 5 µM, above 10 µM, above 10 µM and above 5 µM.
The corresponding values for `CN(CC(C)(C)C)c1ccc(OCCC(=O)Nc2cccc(OC(F)(F)F)c2)cc1` [Compound 22, 3-(4-(Methyl(neopentyl)amino)phenoxy)-N-(3-(trifluoromethoxy)phenyl)propanamide] are above 5 µM, above 10 µM, above 10 µM and 3.13 ± 0.29 µM.
`CC(C)(O)CC(C)(C)c1ccc(OCCC(=O)Nc2cccc(OC(F)(F)F)c2)cc1` [Compound 30, 3-(4-(4-Hydroxy-2,4-dimethylpentan-2-yl)phenoxy)-N-(3-(trifluoromethoxy)phenyl)propanamide]: the IC50 in series [1] was above 5 µM; in series [2], 8.28 ± 0.76 µM; in series [4], above 5 µM.
With `O=C(CCOc1ccc(-c2ccccc2)cc1)Nc1cccc(OC(F)(F)F)c1` [Compound 35a, 3-([1,1′-Biphenyl]-4-yloxy)-N-(3-(trifluoromethoxy)phenyl)propanamide], the melting point was in the range of 132 to 134 °C. For the same molecule, in series [1], the IC50 worked out at 0.78 ± 0.08 µM. Also, in series [2], the IC50 is above 10 µM. In addition, the IC50 in series [3] is above 10 µM. In series [4], the IC50 is 1.38 ± 0.59 µM.
For the molecule `O=C(CCOc1ccc(-c2ccc(F)cc2)cc1)Nc1cccc(OC(F)(F)F)c1` [Compound 35b, 3-((4′-Fluoro-[1,1′-biphenyl]-4-yl)oxy)-N-(3-(trifluoromethoxy)phenyl)propanamide], the melting point was 101 to 103 °C. In addition, the IC50 in series [1] was above 5 µM. The IC50 in series [2] is above 10 µM. Further, in series [3], the IC50 is above 10 µM. Moreover, the IC50 in series [4] was above 5 µM.
On to `O=C(CCOc1ccc2ccccc2c1)Nc1cccc(OC(F)(F)F)c1` [Compound 39a, 3-(Naphthalen-2-yloxy)-N-(3-(trifluoromethoxy)phenyl)propanamide], for which the melting point is 82 to 85 °C. Also, the IC50 in series [1] is above 5 µM. The IC50 in series [2] was above 20 µM. For the same molecule, the IC50 in series [3] was above 20 µM. In series [4], the IC50 was above 5 µM.
Consider `O=C(CCOc1ccc2ccc(Br)cc2c1)Nc1cccc(OC(F)(F)F)c1` [Compound 39b], for which the melting point is 113 to 115 °C. For the same molecule, in series [1], the IC50 amounted to 1.61 ± 0.25 µM. Besides, in series [2], the IC50 amounted to 14.2 ± 0.2 µM. Moreover, the IC50 in series [3] was 14.86 ± 0.07 µM. In addition, the IC50 in series [4] is above 5 µM.
For `O=C(CCOc1ccc2cc(Br)ccc2c1)Nc1cccc(OC(F)(F)F)c1` [Compound 39c, 3-((6-Bromonaphthalen-2-yl)oxy)-N-(3-(trifluoromethoxy)phenyl)propanamide], in that order: 128 to 130 °C, 1.61 ± 0.21 µM, 17.7 ± 0.18 µM, 14.8 ± 0.18 µM and above 5 µM.
`O=C(CCOc1ccc2cc(F)ccc2c1)Nc1cccc(OC(F)(F)F)c1` [Compound 39d, 3-((6-Fluoronaphthalen-2-yl)oxy)-N-(3-(trifluoromethoxy)phenyl)propanamide] gave a melting point of 102 to 104 °C. The IC50 in series [1] stood at 2.25 ± 0.77 µM. Besides, in series [2], the IC50 is above 20 µM. Besides, the IC50 in series [4] came out at 18.3 ± 1.8 µM.
For `CC(C)(C)CC(C)(C)c1ccc(OCCNS(=O)(=O)c2cccc(OC(F)(F)F)c2)cc1` [Compound 44b, 3-(Trifluoromethoxy)-N-(2-(4-(2,4,4-trimethylpentan-2-yl)phenoxy)ethyl)benzenesulfonamide], the IC50 in series [2] was 7.32 ± 0.02 µM; in series [3], 7.61 ± 0.24 µM; in series [4], above 5 µM.
`CC(C)(C)CC(C)(C)c1ccc(NCCC(=O)Nc2cccc(OC(F)(F)F)c2)cc1` [Compound 56, N-(3-(Trifluoromethoxy)phenyl)-3-((4-(2,4,4-trimethylpentan-2-yl)phenyl)amino)propanamide]: the IC50 in series [1] is 1.79 ± 0.04 µM; in series [2], 6.06 ± 0.01 µM; in series [3], 5.3 ± 0.01 µM; in series [4], 3.18 ± 0.18 µM.
With `CC(C)N(CCC(=O)Nc1cccc(OC(F)(F)F)c1)c1ccc(C(C)(C)CC(C)(C)C)cc1` [Compound 57b, 3-(Isopropyl(4-(2,4,4-trimethylpentan-2-yl)phenyl)amino)-N-(3-(trifluoromethoxy)phenyl)propanamide], the IC50 in series [1] amounted to 1.61 ± 0.02 µM; in series [2] it was 6.47 ± 0.06 µM; in series [3] it was 6.06 ± 0.06 µM; in series [4] it was 1.09 ± 0.06 µM.
The corresponding values for `CC(C)(C)CC(C)(C)c1ccc(N(CCC(=O)Nc2cccc(OC(F)(F)F)c2)C2CCC2)cc1` [Compound 57c, 3-(Cyclobutyl(4-(2,4,4-trimethylpentan-2-yl)phenyl)amino)-N-(3-(trifluoromethoxy)phenyl)propanamide] are 2.16 ± 0.01 µM, 7.24 ± 0.11 µM, 7.11 ± 0.03 µM and 1.18 ± 0.01 µM.
